Measurements: patent US8143426B2, “IAP inhibitors” (TetraLogic Pharmaceuticals Corporation, priority 2006, dated 2012)

Molecular target: T1, XIAP BIR3 (Homo sapiens, UniProt P98170)
T1 construct: 40 nM of an IAP-BIR3
Test: Fluorescence polarization binding of IAP antagonists to IAP-BIR3 (competition with AbuRPF-K(5-Fam)-NH2)
Procedure: The binding affinity of illustrative compounds of the present invention to an IAP was determined substantially as described by Nikolovska-Coleska, Z. et. al. (Analytical Biochemistry (2004), vol. 332:261-273) using a variety of fluorogenic substrates and is reported as a Kd value. Briefly, various concentrations of IAP antagonists were mixed with 5 nM fluorescently labeled peptide (AbuRPF-K(5-Fam)-NH2) and 40 nM of an IAP-BIR3 for 15 min at RT in […] of 0.1M Potassium Phosphate buffer, pH 7.5 containing […] bovine g-globulin. Following incubation, the polarization values (mP) were measured on a Victor2V using a 485 nm excitation filter and a 520 nm emission filter. IC50 values were determined from the plot using nonlinear least-squares analysis using GraphPad Prism.

[1] = Table 2, dimeric IAP antagonists
[2] = Table 1, monomeric IAP antagonists (sugar-modified)
[3] = Table 3, monomeric IAP antagonists (piperidine-substituted)

T1 sequence (P98170 241-356 limits assumed): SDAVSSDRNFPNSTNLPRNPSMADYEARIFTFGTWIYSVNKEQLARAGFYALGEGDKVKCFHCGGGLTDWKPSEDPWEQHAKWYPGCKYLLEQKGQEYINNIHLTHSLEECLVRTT

Kd [2] [µM] | Kd [3] [µM] | SMILES | further results
 |  | CN[C@@H](C)C(=O)N[C@H](C(=O)N1CCC[C@H]1Cc1c(-c2c(C[C@@H]3CCCN3C(=O)[C@@H](NC(=O)[C@H](C)NC)C(C)C)c3cc(F)ccc3n2C2O[C@H](CO)[C@H](O)[C@H](O)[C@H]2O)[nH]c2ccc(F)cc12)C(C)C (some centres unmarked) [AA] | Kd [1]: < 0.1 µM
< 0.1 |  | CN[C@@H](C)C(=O)N[C@H](C(=O)N1CCC[C@H]1Cc1c(-c2ccc(F)cc2)n(C2OC[C@@H](O)[C@H](O)[C@H]2O)c2cc(F)ccc12)C(C)C (some centres unmarked) [B] | 
 |  | CN[C@@H](C)C(=O)N[C@H](C(=O)N1CCC[C@H]1Cc1c(-c2c(C[C@@H]3CCCN3C(=O)[C@@H](NC(=O)[C@H](C)NC)C(C)C)c3cc(F)ccc3n2C2O[C@H](CO)[C@@H](O)[C@H](O)[C@H]2O)[nH]c2ccc(F)cc12)C(C)C (some centres unmarked) [CC] | Kd [1]: < 0.1 µM
< 0.1 |  | CNC(C)C(=O)NC(C(=O)N1CCCC1Cc1c(-c2ccc(F)cc2)n(C2OCC(O)C(O)C2O)c2cc(F)ccc12)C(C)(C)C (centres unmarked) [Compound A] | 
 |  | CNC(C)C(=O)NC(C(=O)N1CCCC1Cc1c(-c2c(CC3CCCN3C(=O)C(NC(=O)C(C)NC)C(C)C)c3cc(F)ccc3n2C2OC(C)C(O)C(O)C2O)[nH]c2ccc(F)cc12)C(C)C (centres unmarked) [DD] | Kd [1]: < 0.1 µM
 |  | CNC(C)C(=O)NC(C(=O)N1CCCC1Cc1c(-c2c(CC3CCCN3C(=O)C(NC(=O)C(C)NC)C(C)OC)c3ccc(F)cc3n2C2OC(C)C(O)C(O)C2O)[nH]c2cc(F)ccc12)C(C)OC (centres unmarked) [EE] | Kd [1]: < 0.1 µM
 |  | CNC(C)C(=O)NC(C(=O)N1CC(O)CC1Cc1c(-c2c(CC3CC(O)CN3C(=O)C(NC(=O)C(C)NC)C(C)OC)c3ccc(F)cc3n2C2OC(C)C(O)C(O)C2O)[nH]c2cc(F)ccc12)C(C)OC (centres unmarked) [FF] | Kd [1]: < 0.1 µM
< 0.1 |  | CNC(C)C(=O)NC(C(=O)N1CCCC1Cc1cn(C2OC(C)C(O)C(O)C2O)c2cc(F)ccc12)C(C)(C)C (centres unmarked) [F] | 
< 0.1 |  | CNC(C)C(=O)NC(C(=O)N1CCCC1Cc1cn(C2OC(C)C(O)C(O)C2O)c2cc(F)ccc12)C1CCCCC1 (centres unmarked) [G] | 
 | < 0.1 | CN[C@@H](C)C(=O)N[C@H](C(=O)N1CCCC1Cc1c(-c2ccc(F)cc2)n(C2CCNCC2)c2cc(F)ccc12)C(C)(C)C (some centres unmarked) [HH] | 
< 0.1 |  | CNC(C)C(=O)NC(C(=O)N1CCCC1Cc1cn(C2OC(C)C(O)C(O)C2O)c2cc(F)ccc12)C(C)C (centres unmarked) [H] | 
 | < 0.1 | CN[C@@H](C)C(=O)N[C@H](C(=O)N1CCC[C@H]1Cc1c(-c2ccc(F)cc2)n(C2CCNCC2)c2cc(F)ccc12)[C@@H](C)OC [II] | 
 | < 0.1 | CC[C@H](NC)C(=O)N[C@H](C(=O)N1CCC[C@H]1Cc1c(-c2ccc(F)cc2)n(C2CCNCC2)c2cc(F)ccc12)[C@@H](C)OC [JJ] | 
 | 0.1 to 1 | CN[C@H](C(=O)N[C@H](C(=O)N1CCC[C@H]1Cc1c(-c2ccc(F)cc2)n(C2CCNCC2)c2cc(F)ccc12)[C@@H](C)OC)C1CC1 [KK] | 
 | < 0.1 | CN[C@@H](C)C(=O)N[C@H](C(=O)N1C[C@@H](O)C[C@H]1Cc1c(-c2ccc(F)cc2)n(C2CCNCC2)c2cc(F)ccc12)C(C)(C)C [LL] | 
 | 0.1 to 1 | CCN[C@@H](C)C(=O)N[C@H](C(=O)N1C[C@@H](O)C[C@H]1Cc1c(-c2ccc(F)cc2)n(C2CCNCC2)c2cc(F)ccc12)C(C)(C)C [MM] | 
 | 0.1 to 1 | CN[C@@H](CO)C(=O)N[C@H](C(=O)N1C[C@@H](O)C[C@H]1Cc1c(-c2ccc(F)cc2)n(C2CCNCC2)c2cc(F)ccc12)C(C)(C)C [NN] | 
< 0.1 |  | CN[C@@H](C)C(=O)N[C@H](C(=O)N1CCC[C@H]1Cc1cn(C2OC[C@@H](O)[C@H](O)[C@H]2O)c2cc(F)ccc12)C(C)(C)C (some centres unmarked) [N] | 
 | > 10 | CN[C@H](C(=O)N[C@H](C(=O)N1C[C@@H](O)C[C@H]1Cc1c(-c2ccc(F)cc2)n(C2CCNCC2)c2cc(F)ccc12)C(C)(C)C)C1CC1 [OO] | 
< 0.1 |  | CN[C@@H](C)C(=O)N[C@H](C(=O)N1CCC[C@H]1Cc1c(-c2ccc(F)cc2)n(C2O[C@@H](C)[C@@H](O)[C@@H](O)[C@@H]2O)c2cc(F)ccc12)[C@@H](C)OC (some centres unmarked) [O] | 
 | < 0.1 | CN[C@@H](C)C(=O)N[C@H](C(=O)N1C[C@@H](O)C[C@H]1Cc1c(-c2ccc(F)cc2)n(C2CCNCC2)c2cc(F)ccc12)[C@@H](C)OC [PP] | 
 | < 0.1 | CCN[C@@H](C)C(=O)N[C@H](C(=O)N1C[C@@H](O)C[C@H]1Cc1c(-c2ccc(F)cc2)n(C2CCNCC2)c2cc(F)ccc12)[C@@H](C)OC [QQ] | 
 | < 0.1 | CC[C@H](NC)C(=O)N[C@H](C(=O)N1C[C@@H](O)C[C@H]1Cc1c(-c2ccc(F)cc2)n(C2CCNCC2)c2cc(F)ccc12)[C@@H](C)OC [RR] | 
 | 0.1 to 1 | CN[C@H](C(=O)N[C@H](C(=O)N1C[C@@H](O)C[C@H]1Cc1c(-c2ccc(F)cc2)n(C2CCNCC2)c2cc(F)ccc12)[C@@H](C)OC)C1CC1 [SS] | 
< 0.1 |  | CNC(C)C(=O)NC(C(=O)N1CC(O)CC1Cc1c(-c2ccc(F)cc2)n(C2OC(C)C(O)C(O)C2O)c2cc(F)ccc12)C(C)(C)C (centres unmarked) [T] | 
< 0.1 |  | CNC(C)C(=O)NC(C(=O)N1CC(O)CC1Cc1c(-c2ccc(F)cc2)n(C2OC(C)C(O)C(O)C2O)c2cc(F)ccc12)C(C)OC (centres unmarked) [U] | 
 |  | CN[C@@H](C)C(=O)N[C@H](C(=O)N1CCCC1Cc1c(-c2c(C[C@@H]3CCCN3C(=O)[C@@H](NC(=O)[C@H](C)NC)C(C)C)c3ccc(F)cc3n2C2O[C@@H](C)[C@@H](O)[C@@H](O)[C@@H]2O)[nH]c2cc(F)ccc12)C(C)C (some centres unmarked) [V] | Kd [1]: < 0.1 µM
 |  | CC(C)C(NC(=O)CN)C(=O)N1CCCC1Cc1c(-c2c(CC3CCCN3C(=O)C(NC(=O)CN)C(C)C)c3ccc(F)cc3n2C2OC(C)C(O)C(O)C2O)[nH]c2cc(F)ccc12 (centres unmarked) [W] | Kd [1]: 0.1 to 1 µM
 |  | CN[C@@H](C)C(=O)N[C@H](C(=O)N1CCC[C@H]1Cc1c(-c2c(C[C@@H]3CCCN3C(=O)[C@@H](NC(=O)[C@H](C)NC)C(C)C)c3ccc(F)cc3n2C2OC[C@@H](O)[C@H](O)[C@H]2O)[nH]c2cc(F)ccc12)C(C)C (some centres unmarked) [Y] | Kd [1]: < 0.1 µM
